This is an account of results in patent publication US5049552A, “Compositions containing hexadecylphosphocholine and use thereof” (Max-Planck-Gesellschaft fur Foerderung der Wissenschaften …, priority 1985, dated 1991).

The subject of one series is L1210. As to the kind of experiment: L1210 colony experiment in vitro. Type of series: cell-based.
Series [1] relates to methylnitrosourea-induced mammary carcinoma. Briefly: methylnitrosourea-induced mammary carcinoma of the rat, in vivo. An excerpt:
(§1) Hexadecylphosphocholine is a known substance. […] Therefore, in spite of an anti-tumor action, the median survival time in comparison with the control was shortened by 72% in the case of octadecylphosphocholine-treated animals.

For series [2] the following is noted: Pharmazie 37, 1982, pages 706-707; cited from earlier work.
Another series relates to tumors. As to the kind of experiment: anti-tumor action and toxicity, general statement (homologous alkyl compounds). As to conditions: for anti-tumor action / toxicity: general statement.
Series [3] in a line: subacute toxicity during a treatment of 5 weeks (mortality, median survival time). It is filed as in vivo, rat.
Description: as §1

Series [4] relates to 7,12-dimethylbenzanthracene-induced mammary carcinoma. Briefly: 7,12-dimethylbenzanthracene-induced mammary carcinoma of the rat. It is filed as in vivo.
Series [5] has as its system chemically induced mammary carcinomas. As to the kind of experiment: chemically induced mammary carcinoma of the rat (7,12-dimethylbenzanthracene or methylnitrosourea), in vivo. As to conditions: for minimal effective dose / effect on tumor growth / general dose range for the action / general dose range for the action, especially: rat; for minimal effective dose: read-out: lowest already effective dose. An excerpt:
For oral administration, hexadecylphosphocholine is used, for example, in the form of a potable solution. As carriers there are suitable, for example, milk, cocoa, fruit juice or drinking water. The preparation of such a potable solution takes place, for example, by dilution of a concentrated alcoholic solution of hexadecylphosphocholine with water or another of the previously mentioned agents. […] In the case of the tumor model used for these experiments, it is a question of a so-called hard model. This means that findings obtained with this model can also be transmitted to the human situation.

Where [6] appears, read: 5 weeks, daily dose 77 μmole/kg rat orally.

Where two headings read alike, the source gives them in different places.

For `CCCCCCCCCCCCCCOP(=O)([O-])OCC[N+](C)(C)C` [tetradecylphosphocholine, reference compound], the anti-tumor action result is recorded as “practically no anti-tumor action” in the series on L1210 and “practically no anti-tumor action” in series [1] (in vivo, autochthonous methylnitrosourea-induced mammary carcinoma of the rat).

For `CCCCCCCCCCCCCCCCOP(=O)([O-])OCC[N+](C)(C)C` [hexadecylphosphocholine], the “lysing and fusogenic action” value in series [2] is “a lysing and fusogenic action”. The anti-tumor action result with tumors is on record as “practically useful good anti-tumor action”; in the series with tumors (listed as Hexadecylphosphocholine), “excellent anti-tumor action”. The toxicity result in the series with tumors is recorded as “sufficient anti-tumor action in non-toxic doses”. The “synergistic increase of antitumor action with alkylglycerols / glycerol ethers of formula I” value in the series with tumors (hexadecylphosphocholine together with alkylglycerol) is recorded as “synergistic action increase of the antitumor action”. For the same compound, the “action on methylnitrosourea-induced mammary carcinoma” value in series [1] (rat) is listed as “good action”. In addition, the “mortality in comparison with octadecylphosphocholine-treated animals” value in series [3] (setting [6]) is “lower by a half”. The “increase of the median survival time in comparison with the controls” value in series [3] (5 weeks, highly significant) is 26%. Further, the chronic toxicity result in series [3] (rat, oral) is “absence of a chronic toxicity”. Besides, the “action on 7,12-dimethylbenzanthracene-induced mammary carcinoma” value in series [4] is given as “good action”. Besides, the minimal effective dose worked out at 5 mg/kg in series [5] (iv, intravenously) and 5 mg/kg in series [5] (po, orally). Further, the “effect on tumor growth” value in series [5] (10 mg./kg. body weight) is recorded as “cessation of growth of the tumors”; in series [5] (doses higher than 10 mg./kg.), “complete disappearance of the growths”. Moreover, the “general dose range for the action” value in series [5] (intravenously) and in series [5] (orally) was 5 to 50 mg/kg in each case. Besides, the “general dose range for the action, especially” value in series [5] (intravenously) and in series [5] (orally) was 15 to 32 mg/kg in each case. Also, in series [5] (rats, daily doses of 20, 40 and 60 mg./kg., oral), the “remission of chemically induced mammary carcinomas” value is “complete remission”. The “compatibility versus 1-octadecyl-2-methyl-rac-glycero-3-phosphocholine” value in series [5] (rats, oral) is “better compatible”. The “effectiveness versus 1-octadecyl-2-methyl-rac-glycero-3-phosphocholine” value in series [5] (rats, oral) is “better effective”.

On to `CCCCCCCCCCCCCCCCCCOP(=O)([O-])OCC[N+](C)(C)C` [octadecylphosphocholine, reference compound], for which, in the series with tumors, the anti-tumor action entry was “anti-tumor effective” and the toxicity result is recorded as “far too toxic”. Also, in series [3] (setting [6]), the “shortening of median survival time in comparison with the control” value came out at 72%. The mortality (in general, the percentage killed) at 840 h in series [3] (in vivo, po, 77 umol/kg, 5 weeks, daily dose 77 μmole/kg rat orally, read-out: mortality (of all animals)) was 80%.
